Experimental data: patent US20260207602A1, “EGFR INHIBITORS” (Blueprint Medicines Corporation, priority 2022, published 2026)

Experiments:
[1] = biological target: intracellular phosphorylation of EGFR (Tyr1068) in PC-9 cells (Homo sapiens, UniProt P00533, DEL746-750); experiment: PC-9 pEGFR AlphaLISA assay; assay type: cell-based; conditions: 4 hours incubation, read-out: Phos EGFR PC9 IC50
In short: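 PC-9 cells (EGFR del746-750) in phenol-free DMEM/10% FBS, adhered overnight, then exposed to 10-point 4-fold compound dilutions for 4 h at 37 °C. Lysates assayed for pEGFR Tyr1068 by AlphaLISA SureFire Ultra; IC50 from percent pEGFR inhibition vs log concentration.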

[2] = biological target: T1, EGFR L858R (Homo sapiens, UniProt P00533, L858R); experiment: Biochemical EGFR inhibition assay (Caliper mobility shift), EGFR L858R; conditions: biochemical Caliper mobility shift assay, EGFR L858R enzyme; read-out: Enz EGFR L858R IC50
T1 construct: purchased SignalChem E10-122BG
In short: (§1)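 Kinase activity measured as phosphorylation of 2.5 µM 5-FAM-labelled peptide substrate in 100 mM HEPES pH 7.5, 10 mM MgCl2, 0.015% Brij-35, 1 mM DTT, 1.0% DMSO, at 1.0 mM ATP or ATP Km. Run at 25 °C to 10–20% conversion, stopped with EDTA; product resolved by mobility shift, apparent IC50 from percent activity vs log concentration.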

[3] = biological target: T2, EGFR (d746-750) (Homo sapiens, UniProt P00533, DEL746-750); experiment: Biochemical EGFR inhibition assay (Caliper mobility shift), EGFR (d746-750); conditions: biochemical Caliper mobility shift assay, EGFR Exon 19-del enzyme; read-out: Enz EGFR Exon 19-del IC50
T2 construct: purchased SignalChem E10-122JG
In short: as §1

T1 sequence (P00533 25-1210 L858R): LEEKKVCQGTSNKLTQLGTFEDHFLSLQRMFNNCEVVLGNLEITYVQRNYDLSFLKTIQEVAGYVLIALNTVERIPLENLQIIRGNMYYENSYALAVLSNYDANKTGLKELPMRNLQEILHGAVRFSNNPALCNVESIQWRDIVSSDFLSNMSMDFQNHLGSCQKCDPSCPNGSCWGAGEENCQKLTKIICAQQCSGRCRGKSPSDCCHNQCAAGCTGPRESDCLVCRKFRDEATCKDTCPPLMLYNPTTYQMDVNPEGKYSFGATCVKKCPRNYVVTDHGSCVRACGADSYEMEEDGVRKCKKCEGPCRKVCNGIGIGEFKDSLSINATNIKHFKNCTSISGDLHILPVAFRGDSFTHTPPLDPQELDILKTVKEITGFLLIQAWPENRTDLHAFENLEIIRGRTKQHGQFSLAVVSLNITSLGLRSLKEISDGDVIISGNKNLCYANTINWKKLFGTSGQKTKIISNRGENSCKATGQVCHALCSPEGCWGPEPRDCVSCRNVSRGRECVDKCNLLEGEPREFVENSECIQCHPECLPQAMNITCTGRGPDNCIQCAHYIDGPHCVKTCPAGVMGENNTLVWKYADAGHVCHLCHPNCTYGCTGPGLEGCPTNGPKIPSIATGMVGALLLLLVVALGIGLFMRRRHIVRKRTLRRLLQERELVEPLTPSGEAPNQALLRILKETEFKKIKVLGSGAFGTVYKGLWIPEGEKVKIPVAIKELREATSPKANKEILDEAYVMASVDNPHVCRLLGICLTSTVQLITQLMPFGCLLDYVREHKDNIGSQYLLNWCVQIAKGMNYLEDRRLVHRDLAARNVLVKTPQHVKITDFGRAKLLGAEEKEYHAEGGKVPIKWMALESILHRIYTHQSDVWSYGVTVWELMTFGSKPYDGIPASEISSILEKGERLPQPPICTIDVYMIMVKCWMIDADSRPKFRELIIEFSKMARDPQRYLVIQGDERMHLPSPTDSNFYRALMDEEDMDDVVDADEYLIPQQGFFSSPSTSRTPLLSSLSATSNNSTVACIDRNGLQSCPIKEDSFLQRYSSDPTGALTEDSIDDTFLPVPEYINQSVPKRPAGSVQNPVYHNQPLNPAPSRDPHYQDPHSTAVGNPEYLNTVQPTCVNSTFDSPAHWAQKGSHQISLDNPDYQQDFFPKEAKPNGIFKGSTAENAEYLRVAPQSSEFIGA
Sequence of intracellular phosphorylation of EGFR (Tyr1068) in PC-9 cells (P00533 with tags, fused parts or gaps DEL746-750): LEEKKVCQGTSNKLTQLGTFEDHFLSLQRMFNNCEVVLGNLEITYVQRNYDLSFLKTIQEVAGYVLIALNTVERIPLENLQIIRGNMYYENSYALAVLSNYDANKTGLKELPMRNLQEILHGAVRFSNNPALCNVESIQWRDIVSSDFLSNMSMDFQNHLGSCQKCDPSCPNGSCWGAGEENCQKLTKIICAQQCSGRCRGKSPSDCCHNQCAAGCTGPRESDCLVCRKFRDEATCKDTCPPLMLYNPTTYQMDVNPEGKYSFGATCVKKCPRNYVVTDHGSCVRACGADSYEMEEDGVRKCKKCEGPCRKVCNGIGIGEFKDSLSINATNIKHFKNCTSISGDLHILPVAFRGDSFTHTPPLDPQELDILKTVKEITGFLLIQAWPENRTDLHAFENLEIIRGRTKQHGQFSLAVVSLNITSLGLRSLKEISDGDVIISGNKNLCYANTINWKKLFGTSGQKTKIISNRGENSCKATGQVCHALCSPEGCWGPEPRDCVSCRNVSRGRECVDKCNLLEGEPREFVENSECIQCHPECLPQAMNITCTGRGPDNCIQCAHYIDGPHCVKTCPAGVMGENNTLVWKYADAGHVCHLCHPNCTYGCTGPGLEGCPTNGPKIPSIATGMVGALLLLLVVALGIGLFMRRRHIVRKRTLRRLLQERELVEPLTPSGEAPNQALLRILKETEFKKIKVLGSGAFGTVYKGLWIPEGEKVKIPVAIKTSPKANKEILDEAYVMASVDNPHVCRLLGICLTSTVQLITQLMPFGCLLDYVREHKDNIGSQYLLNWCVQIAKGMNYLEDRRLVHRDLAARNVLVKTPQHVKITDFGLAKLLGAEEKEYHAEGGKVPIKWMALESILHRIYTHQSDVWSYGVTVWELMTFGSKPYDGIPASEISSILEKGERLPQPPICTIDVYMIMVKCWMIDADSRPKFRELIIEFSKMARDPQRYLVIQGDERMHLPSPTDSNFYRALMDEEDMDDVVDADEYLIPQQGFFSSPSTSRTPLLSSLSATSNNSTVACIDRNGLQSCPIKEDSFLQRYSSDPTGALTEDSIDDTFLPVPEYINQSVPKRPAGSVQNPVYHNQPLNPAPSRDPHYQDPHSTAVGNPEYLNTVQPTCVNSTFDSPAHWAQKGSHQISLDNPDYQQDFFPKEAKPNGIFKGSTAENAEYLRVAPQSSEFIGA
T2 sequence (P00533 with tags, fused parts or gaps DEL746-750 limits assumed): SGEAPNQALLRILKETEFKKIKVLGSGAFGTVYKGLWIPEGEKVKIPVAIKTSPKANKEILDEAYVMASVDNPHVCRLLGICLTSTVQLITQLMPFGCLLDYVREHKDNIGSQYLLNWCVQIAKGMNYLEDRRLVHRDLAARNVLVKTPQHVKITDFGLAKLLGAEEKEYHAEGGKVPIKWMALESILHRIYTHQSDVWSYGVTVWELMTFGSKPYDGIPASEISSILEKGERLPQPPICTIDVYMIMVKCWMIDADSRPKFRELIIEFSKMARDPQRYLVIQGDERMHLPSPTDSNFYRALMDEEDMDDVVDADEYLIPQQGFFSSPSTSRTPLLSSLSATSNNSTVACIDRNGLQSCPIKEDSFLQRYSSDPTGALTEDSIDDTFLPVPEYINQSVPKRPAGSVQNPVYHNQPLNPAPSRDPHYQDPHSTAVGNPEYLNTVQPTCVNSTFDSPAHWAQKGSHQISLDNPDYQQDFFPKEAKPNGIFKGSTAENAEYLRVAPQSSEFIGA

SMILES: Cn1cc(-c2cc(O[C@@H]3CNC[C@H](F)C3)c3c(Nc4ccc5ncsc5c4)ncnc3c2)cn1 (single isomer, unassigned) [Example 334]
- IC50 [1]: 10.1 to 50 nM
- IC50 [2]: ≤ 10 nM
- IC50 [3]: ≤ 10 nM

SMILES: Cn1cc(-c2cc(O[C@H]3COC[C@@H]3O)c3c(Nc4ccc5ncsc5c4)ncnc3c2)cn1 (single isomer, unassigned) [Example A29]
- IC50 [1]: 10.1 to 50 nM
- IC50 [2]: ≤ 10 nM
- IC50 [3]: ≤ 10 nM

SMILES: CN1CCC(C)(COc2cc(-c3cnn(C)c3)cc3ncnc(Nc4ccc5ncsc5c4)c23)C1=O (stereo not drawn) [Example 54, 3-(((4-(benzo[d]thiazol-6-ylamino)-7-(1-methyl-1H-pyrazol-4-yl)quinazolin-5-yl)oxy)methyl)-1,3-dimethylpyrrolidin-2-one]
- IC50 [1]: 10.1 to 50 nM
- IC50 [2]: ≤ 10 nM
- IC50 [3]: ≤ 10 nM

SMILES: COc1cc2ncnc(Nc3ccc4ncsc4c3)c2cc1-c1cnn([C@H]2CCN(C)C[C@@H]2F)c1 (racemic) [Example 169, trans-N-(6-(1-((3S,4S)-3-fluoro-1-methylpiperidin-4-yl)-1H-pyrazol-4-yl)-7-methoxyquinazolin-4-yl)benzo[d]thiazol-6-amine]
- IC50 [1]: 10.1 to 50 nM
- IC50 [2]: ≤ 10 nM
- IC50 [3]: ≤ 10 nM

SMILES: COc1cc(O[C@H](C)C2COC2)c2c(Nc3ccc4ncsc4c3F)ncnc2c1 (single isomer, unassigned) [Example 82]
- IC50 [1]: 10.1 to 50 nM
- IC50 [2]: ≤ 10 nM
- IC50 [3]: ≤ 10 nM

SMILES: COC[C@@H](C)Oc1cc(-n2cc(C(C)(C)O)cn2)cc2ncnc(Nc3ccc4ncsc4c3F)c12 [Example A26, (R)-2-(1-(4-((7-fluorobenzo[d]thiazol-6-yl)amino)-5-((1-methoxypropan-2-yl)oxy)quinazolin-7-yl)-1H-pyrazol-4-yl)propan-2-ol]
- IC50 [1]: ≤ 10 nM
- IC50 [2]: ≤ 10 nM
- IC50 [3]: ≤ 10 nM

SMILES: C[C@@H](Oc1c(F)c(-c2cnn(C)c2)cc2ncnc(Nc3ccc4ncsc4c3F)c12)C1COC1 (single isomer, unassigned) [Example A27]
- IC50 [1]: 10.1 to 50 nM
- IC50 [2]: ≤ 10 nM
- IC50 [3]: ≤ 10 nM

SMILES: Cn1cc(-c2cc(O[C@@H]3CC[C@H](O)C3)c3c(Nc4ccc5ncsc5c4)ncnc3c2)cn1 [Example 411, (1S,3R)-3-((4-(benzo[d]thiazol-6-ylamino)-7-(1-methyl-1H-pyrazol-4-yl)quinazolin-5-yl)oxy)cyclopentan-1-ol]
- IC50 [1]: ≤ 10 nM
- IC50 [2]: ≤ 10 nM
- IC50 [3]: ≤ 10 nM

SMILES: COc1cc2ncnc(Nc3ccc4ncsc4c3)c2cc1-c1cnn(C2CCN(C)C[C@H]2F)c1 (single isomer, unassigned) [Example 166]
- IC50 [1]: ≤ 10 nM
- IC50 [2]: ≤ 10 nM
- IC50 [3]: ≤ 10 nM

SMILES: COc1nn(C)cc1-c1cc(O[C@@H]2CCN(C)C[C@H]2F)c2c(Nc3ccc4ncsc4c3F)ncnc2c1 [Example 351, 7-fluoro-N-(5-(((3R,4R)-3-fluoro-1-methylpiperidin-4-yl)oxy)-7-(3-methoxy-1-methyl-1H-pyrazol-4-yl)quinazolin-4-yl)benzo[d]thiazol-6-amine]
- IC50 [1]: ≤ 10 nM
- IC50 [2]: ≤ 10 nM
- IC50 [3]: ≤ 10 nM

SMILES: Cn1cc(-c2cc(OCC(=O)N3CCOCC3)c3c(Nc4ccc5ncsc5c4)ncnc3c2)cn1 [Example 273, 2-((4-(benzo[d]thiazol-6-ylamino)-7-(1-methyl-1H-pyrazol-4-yl)quinazolin-5-yl)oxy)-1-morpholinoethan-1-one]
- IC50 [1]: ≤ 10 nM
- IC50 [2]: ≤ 10 nM
- IC50 [3]: ≤ 10 nM

SMILES: C[C@@H](Oc1cc(-c2cnn(C)c2)cc2ncnc(Nc3ccc4ncsc4c3)c12)[C@H](C)N(C)C (single isomer, unassigned) [Example 145]
- IC50 [1]: ≤ 10 nM
- IC50 [2]: ≤ 10 nM
- IC50 [3]: ≤ 10 nM

SMILES: CN1CC[C@H](Oc2cc(-c3cnn(C)c3)cc3ncnc(Nc4ccc5ncsc5c4)c23)C[C@@H]1CO [Example A08, [(2R,4S)-4-({4-[(1,3-benzothiazol-6-yl)amino]-7-(1-methyl-1H-pyrazol-4-yl)quinazolin-5-yl}oxy)-1-methylpiperidin-2-yl]methanol]
- IC50 [1]: 10.1 to 50 nM
- IC50 [2]: ≤ 10 nM
- IC50 [3]: ≤ 10 nM

SMILES: COc1cn(C)nc1-c1cc(O[C@H](C)C2COC2)c2c(Nc3ccc4ncsc4c3F)ncnc2c1 (single isomer, unassigned) [Example 81]
- IC50 [1]: 10.1 to 50 nM
- IC50 [2]: ≤ 10 nM
- IC50 [3]: ≤ 10 nM

SMILES: CN1CCC[C@@H](Oc2cc(-c3cnn(C)c3)cc3ncnc(Nc4ccc5ncsc5c4)c23)C1 (single isomer, unassigned) [Example 47]
- IC50 [1]: 10.1 to 50 nM
- IC50 [2]: ≤ 10 nM
- IC50 [3]: ≤ 10 nM

SMILES: CN1CC[C@H](Oc2cc(-c3cnn(C)c3)cc3ncnc(Nc4ccc5ncsc5c4)c23)C1 [Example 34, (S)-N-(7-(1-methyl-1H-pyrazol-4-yl)-5-((1-methylpyrrolidin-3-yl)oxy)quinazolin-4-yl)benzo[d]thiazol-6-amine]
- IC50 [1]: 10.1 to 50 nM
- IC50 [2]: 10.1 to 50 nM
- IC50 [3]: ≤ 10 nM

SMILES: CN1CCC[C@H](Oc2cc(-c3cn(C)n(C(F)F)c3=O)cc3ncnc(Nc4ccc5ncsc5c4)c23)C1 [Example 249, (S)-4-(4-(benzo[d]thiazol-6-ylamino)-5-((1-methylpiperidin-3-yl)oxy)quinazolin-7-yl)-2-(difluoromethyl)-1-methyl-1,2-dihydro-3H-pyrazol-3-one]
- IC50 [1]: 10.1 to 50 nM
- IC50 [2]: ≤ 10 nM
- IC50 [3]: ≤ 10 nM

SMILES: COc1nn(C)cc1-c1cc(OC2COC2)c2c(Nc3ccc4ncsc4c3)ncnc2c1 [Example 18, N-(7-(3-methoxy-1-methyl-1H-pyrazol-4-yl)-5-(oxetan-3-yloxy)quinazolin-4-yl)benzo[d]thiazol-6-amine]
- IC50 [1]: ≤ 10 nM
- IC50 [2]: ≤ 10 nM
- IC50 [3]: ≤ 10 nM

SMILES: C[C@@H](Oc1cc(-c2cnn(CC(C)(C)O)c2)cc2ncnc(Nc3ccc4ncsc4c3)c12)C1COC1 (single isomer, unassigned) [Example 127]
- IC50 [1]: ≤ 10 nM
- IC50 [2]: ≤ 10 nM
- IC50 [3]: ≤ 10 nM

SMILES: COc1nn(C)cc1-c1cc(O[C@H](C)C2COC2)c2c(Nc3ccc4ncsc4c3)ncnc2c1 (single isomer, unassigned) [Example 170]
- IC50 [1]: ≤ 10 nM
- IC50 [2]: ≤ 10 nM
- IC50 [3]: ≤ 10 nM

SMILES: Cn1cc(-c2cc3ncnc(Nc4ccc5ncsc5c4F)c3cc2OC2CCOCC2)cn1 [Example 262, 7-fluoro-N-(7-(1-methyl-1H-pyrazol-4-yl)-6-((tetrahydro-2H-pyran-4-yl)oxy)quinazolin-4-yl)benzo[d]thiazol-6-amine]
- IC50 [1]: ≤ 10 nM
- IC50 [2]: ≤ 10 nM
- IC50 [3]: ≤ 10 nM

SMILES: CN1CCC[C@@H]1COc1cc(-c2cnn(C)c2)cc2ncnc(Nc3ccc4ncsc4c3)c12 [Example 33, (R)-N-(7-(1-methyl-1H-pyrazol-4-yl)-5-((1-methylpyrrolidin-2-yl)methoxy)quinazolin-4-yl)benzo[d]thiazol-6-amine]
- IC50 [1]: 10.1 to 50 nM
- IC50 [2]: ≤ 10 nM
- IC50 [3]: ≤ 10 nM

SMILES: COc1cn(C)nc1-c1cc(OC2CCN(C)CC2)c2c(Nc3ccc4ncsc4c3F)ncnc2c1 [Example 319, 7-fluoro-N-(7-(4-methoxy-1-methyl-1H-pyrazol-3-yl)-5-((1-methylpiperidin-4-yl)oxy)quinazolin-4-yl)benzo[d]thiazol-6-amine]
- IC50 [1]: ≤ 10 nM
- IC50 [2]: 10.1 to 50 nM
- IC50 [3]: ≤ 10 nM

SMILES: Cn1cc(-c2cc(OCC3CCOC3)c3c(Nc4ccc5ncsc5c4)ncnc3c2)cn1 (single isomer, unassigned) [Example 41]
- IC50 [1]: 10.1 to 50 nM
- IC50 [2]: ≤ 10 nM
- IC50 [3]: ≤ 10 nM
